The values that follow come from patent publication US9783510B2, “Small molecule mediated transcriptional induction of E-cadherin” (Vanderbilt University, priority 2014, dated 2017).

Structures are written as SMILES.

The subject of the assay is E-cadherin expression in SW620 cells. Kind of assay: E-cadherin expression, in-cell Western (ICW), SW620 cells. It counts as cell-based. Conditions: for fold induction at 10 µM: SW-620, 24 h. The method, then: SW620 and H520 cells (5×10^4/100 μL) were seeded in a 96-well plate prior to treatment. Cells were treated with 10 μM concentration of synthesized compound in quadruplicate for 24 hours in RPMI 1640 supplemented medium and 100 μg/mL penicillin-streptomycin. The cells were then fixed with 100% methanol for 20 minutes at 4° C. The wells were then washed 2 times with PBS, permeabilized in 2% bovine serum albumin (BSA) and 0.2% TritonX-100 in PBS for 30 minutes at room temperature with gentle agitation, and blocked in LI-COR blocking buffer for 30 minutes at room temperature with gentle agitation. The cells were then incubated with the following primary antibodies: anti-E-Cadherin (1:500) and anti-α-Tubulin (1:1000) diluted in blocking buffer (1:1 dilution in PBS) for 2 hours at room temperature with gentle agitation. The cells were washed 4 times in PBS-T for 5 minutes each, and then incubated with the following secondary antibodies conjugated to a fluorescent entity: IRDye 800-conjugated goat anti-rabbit IgG (1:1000) and IRDye-700-conjugated goat anti-mouse IgG (1:2000) in blocking buffer (1:1 dilution in PBS) with gentle agitation for 1 h at room temperature. The cells were washed 4 times in PBS-T for 5 minutes each followed by a single wash with PBS. All liquid was removed from the wells and the plates were visualized and analyzed on the Odyssey IR imaging system (LI-COR Biosciences).
The assay was further optimized in the following manner. The cells were washed 2 times with PBS, fixed in 100% methanol at room temperature for 15 minutes, and again washed 2 times with PBS. The cells were then incubated with the following primary antibodies: anti-E-Cadherin (1:200) and anti-α-Tubulin (1:2000) diluted in ice cold 2% bovine serum albumin (BSA) and 0.2% TritonX-100 in PBS for 1 hour at room temperature with gentle agitation. The cells were washed 2 times in PBS and then incubated with the following secondary antibodies conjugated to a fluorescent entity: Licor 800-conjugated goat anti-rabbit IgG (1:2000) and IRDye-700-conjugated goat anti-mouse IgG (1:2000) in ice cold 2% BSA and 0.2% TritonX-100 in PBS with gentle agitation for 45 minutes at room temperature. The wells were washed 2 times in PBS, dried, and analyzed as previously mentioned.
N-Acetamidoalkyl-5-arylisoxazole-3-carboxamide analogs were synthesized as described above. Changes in expression level of E-cadherin in response to 10 μM compound in SW620 cells was determined in a cell-based functional assay as described above, and the data are shown in Table III. The compound number corresponds to the compound numbers used in Table II.
EC50 of inducement of E-cadherin expression in SW620 cells was determined in a cell-based functional assay as described above, and the data are shown in Table V. The compound number corresponds to the compound numbers used in Table IV.

Setting [1] is: Homo sapiens, change in expression level of E-cadherin in response to 10 μM compound, 24 hours, SW620 cells.

For the molecule `O=C(CCCC[C@@H]1SC[C@@H]2NC(=O)N[C@@H]21)NCCCNC(=O)c1cc(-c2ccccc2)on1` (stereo in doubt) [Compound 19, N-(3-(5-((3aS,4S,6aR)-2-oxohexahydro-1H-thieno[3,4-d]imidazol-4-yl)pentanamido)propyl)-5-phenylisoxazole-3-carboxamide], the fold induction (usually the signal under treatment as a multiple of the control signal) at 10 µM under setting [1] turned out to be 1.25. `O=C(NCCNC(=O)c1cc(-c2ccccc2)on1)c1cccnc1` [Compound 3, N-(2-(nicotinamido)ethyl)-5-phenylisoxazole-3-carboxamide]: the fold induction at 10 µM under setting [1] turned out to be 3.05. Where the note is “Homo sapiens, SW-620, inducement of E-cadherin expression in SW620 cells”, a half-maximal response (EC50) required 7.1 µM. Regarding `N[C@@H](Cc1c[nH]c2ccccc12)C(=O)NCCNC(=O)c1cc(-c2ccccc2)on1` [Compound 6, (S)—N-(2-(2-amino-3-(1H-indol-3-yl)propanamido)ethyl)-5-phenylisoxazole-3-carboxamide], the fold induction at 10 µM under setting [1] turned out to be 0.92. On to `O=C(Cc1cccc(O)c1)NCCNC(=O)c1cc(-c2ccccc2)on1` [Compound 7, N-(2-(2-(3-hydroxyphenyl)acetamido)ethyl)-5-phenylisoxazole-3-carboxamide], for which the fold induction at 10 µM under setting [1] was 2.92.

`O=C(NCCNC(=O)c1cc(-c2ccccc2)on1)c1cccc(O)c1` [Compound 8, N-(2-(3-hydroxybenzamido)ethyl)-5-phenylisoxazole-3-carboxamide]: the fold induction at 10 µM under setting [1] turned out to be 2.44. With `O=C(NCCNC(=O)c1cc(-c2ccccc2)on1)c1ccc(O)c(O)c1` [Compound 9, N-(2-(3,4-dihydroxybenzamido)ethyl)-5-phenylisoxazole-3-carboxamide], the fold induction at 10 µM under setting [1] amounted to 1.89.

Turning to `O=C(NCCNC(=O)c1cc(-c2ccccc2)on1)c1cc(O)cc(Br)c1` [Compound 10, N-(2-(3-bromo-5-hydroxybenzamido)ethyl)-5-phenylisoxazole-3-carboxamide], under setting [1], the fold induction at 10 µM was determined as 2.35. With `Cc1scnc1C(=O)NCCNC(=O)c1cc(-c2ccccc2)on1` [Compound 11, N-(2-(5-methylthiazole-4-carboxamido)ethyl)-5-phenylisoxazole-3-carboxamide], the fold induction at 10 µM under setting [1] was 2.08. For the molecule `O=C(NCCNC(=O)c1cnccc1O)c1cc(-c2ccccc2)on1` [Compound 12, N-(2-(4-hydroxynicotinamido)ethyl)-5-phenylisoxazole-3-carboxamide], the fold induction at 10 µM under setting [1] is 3.25. Regarding `Nc1ccc(C(=O)NCCCNC(=O)c2cc(-c3ccccc3)on2)cn1` [Compound 14, N-(3-(6-aminonicotinamido)propyl)-5-phenylisoxazole-3-carboxamide], the “fold change SW620 ICW” value (change in expression level of E-cadherin in response to 10 μM compound, 24 hours, SW620 cells) worked out at 0.70 fold. Regarding `Nc1cccc(C(=O)NCCCNC(=O)c2cc(-c3ccccc3)on2)c1` [Compound 15, N-(3-(3-aminobenzamido)propyl)-5-phenylisoxazole-3-carboxamide], the fold induction at 10 µM under setting [1] is 3.94. On the same count and under the same terms, in the case of `Nc1ccc(C(=O)NCCCNC(=O)c2cc(-c3ccccc3)on2)cc1O` [Compound 16, N-(3-(4-amino-3-hydroxybenzamido)propyl)-5-phenylisoxazole-3-carboxamide] it was 3.72; in that of `O=C(CCCC[C@@H]1SC[C@@H]2NC(=O)N[C@@H]21)Nc1ccc(C(=O)NCCCNC(=O)c2cc(-c3ccccc3)on2)cc1` [Compound 17, N-(3-(4-(5-((3aS,4S,6aR)-2-oxohexahydro-1H-thieno[3,4-d]imidazol-4-yl)pentanamido)benzamido)propyl)-5-phenylisoxazole-3-carboxamide], 1.04. `O=C(CCCC[C@@H]1SC[C@@H]2NC(=O)N[C@@H]21)Nc1cccc(C(=O)NCCCNC(=O)c2cc(-c3ccccc3)on2)c1` [Compound 18, N-(3-(3-(5-((3aS,4S,6aR)-2-oxohexahydro-1H-thieno[3,4-d]imidazol-4-yl)pentanamido)benzamido)propyl)-5-phenylisoxazole-3-carboxamide]: the fold induction at 10 µM under setting [1] turned out to be 1.05. In the case of `N[C@@H](Cc1ccccc1)C(=O)NCCNC(=O)c1cc(-c2ccccc2)on1` [Compound 23, (S)—N-(2-(2-amino-3-phenylpropanamido)ethyl)-5-phenylisoxazole-3-carboxamide], under setting [1], the fold induction at 10 µM amounted to 0.84.
